Reference: US7790904B2, “Substituted benzimidazole derivatives” (Hoffmann-La Roche Inc., priority 2007, dated 2010)

How the values were obtained:
[1] = target: T1, FXR ligand binding domain (GST-FXR LBD fusion protein) (Homo sapiens, UniProt Q96RI1); experiment: Radioligand binding assay (SPA, radioligand displacement); conditions: 40 nM GST-FXR LBD on glutathione yttrium silicate SPA beads; radioligand e.g. 20 nM 2,N-dicyclohexyl-2-[2-(2,4 dimethoxy-phenyl)-benzoimidazol-1-yl]-acetamide
T1 construct: made in house; host or cells: E. coli BL21 (pLysS)
T1 sequence (Q96RI1 193-472 isoform Q96RI1-2 limits assumed): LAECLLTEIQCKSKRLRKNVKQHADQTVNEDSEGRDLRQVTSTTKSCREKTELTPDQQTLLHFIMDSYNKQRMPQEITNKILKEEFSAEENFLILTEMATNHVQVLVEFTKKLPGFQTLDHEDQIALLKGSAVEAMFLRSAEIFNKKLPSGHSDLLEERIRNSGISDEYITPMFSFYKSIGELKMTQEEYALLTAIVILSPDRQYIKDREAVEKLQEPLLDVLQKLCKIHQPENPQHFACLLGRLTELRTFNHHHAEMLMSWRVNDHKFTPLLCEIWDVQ
Method: The following tests were carried out in order to determine the activity of the compounds of formula (I). Background information on the binding assay can be found in: Nichols J S et al. “Development of a scintillation proximity assay for peroxisome proliferator-activated receptor gamma ligand binding domain”, (1998) Anal. Biochem. 257: 112-119.
(§1) Bacterial and mammalian expression vectors were constructed to produce glutathione-s-transferase (GST) and Gal4 DNA binding domain (GAL) proteins fused to the ligand binding domain (LBD) of human FXR (aa 193-473). To accomplish this, the portions of the sequences encoding the FXR LBD were amplified by polymerase chain reaction (PCR) from a full-length clone by PCR and then subcloned into the plasmid vectors. The final clone was verified by DNA sequence analysis.
The induction, expression, and subsequent purification of GST-LBD fusion protein was performed in E. coli strain BL21 (pLysS) cells by standard methods (Current Protocols in Molecular Biology, Wiley Press, ed. Ausubel et al.).
Radioligand Binding Assay
Binding of test substances to the FXR ligand binding domain was assessed in a radioligand displacement assay. The assay was performed in a buffer consisting of 50 mM Hepes, pH 7.4, 10 mM NaCl, 5 mM MgCl2, 0.01% CHAPS. For each reaction well in a 96-well plate, 40 nM of GST-FXR LBD fusion protein was bound to 10 μg glutathione ytrium silicate SPA beads (PharmaciaAmersham) in a final volume of 50 μl by shaking. A radioligand (e.g. 20 nM of 2,N-dicyclohexyl-2-[2-(2,4 dimethoxy-phenyl)-benzoimidazol-1-yl]-acetamide) and test compounds were added, and scintillation proximity counting was performed. All binding assays were performed in 96-well plates and the amount of bound ligand was measured on a Packard TopCount using OptiPlates (Packard). Dose response curves were performed within a range of test compound concentrations from 6×10^−9 M to 2.5×10^−5 M and IC50s were calculated.

[2] = target: T2, ligand binding domain (LBD) of human FXR (aa 193-473) (Homo sapiens, UniProt Q96RI1); experiment: Luciferase transcriptional reporter gene assay (transactivation); type: cell-based; conditions: BHK21 cells transfected with pFA-FXR-LBD plus reporter plasmid; 24 hours incubation; luciferase luminescence
T2 sequence (Q96RI1 1-486): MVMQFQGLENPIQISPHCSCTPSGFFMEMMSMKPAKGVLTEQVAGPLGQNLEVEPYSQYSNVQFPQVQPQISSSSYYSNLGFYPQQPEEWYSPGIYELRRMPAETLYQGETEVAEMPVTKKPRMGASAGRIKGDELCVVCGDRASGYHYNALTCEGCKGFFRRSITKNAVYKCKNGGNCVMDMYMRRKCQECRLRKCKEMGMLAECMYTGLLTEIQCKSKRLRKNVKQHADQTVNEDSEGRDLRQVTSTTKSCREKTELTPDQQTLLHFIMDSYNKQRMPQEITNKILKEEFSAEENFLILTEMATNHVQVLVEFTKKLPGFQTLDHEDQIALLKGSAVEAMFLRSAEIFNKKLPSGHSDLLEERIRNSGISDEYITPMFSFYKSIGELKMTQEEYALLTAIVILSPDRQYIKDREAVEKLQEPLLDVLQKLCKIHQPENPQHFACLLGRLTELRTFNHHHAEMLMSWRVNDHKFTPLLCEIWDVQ
Excerpt: as §1
Luciferase Transcriptional Reporter Gene Assays
Baby hamster kidney cells (BHK21 ATCC CCL 10) were grown in DMEM medium containing 10% FBS at 37° C. in a 95% […]/5% CO2 atmosphere. Cells were seeded in 6-well plates at a density of 10^5 cells/well and then transfected with the pFA-FXR-LBD or expression plasmid plus a reporter plasmid. […] Six hours following transfection, the cells were harvested by trypsinization and seeded in 96-well plates at a density of […]. After 24 hours to allow attachment of cells, the medium was removed and replaced with 100 μl of phenol red-free medium containing the test substances or control ligands (final DMSO concentration: 0.4%). Following incubation of the cells for 24 hours with substances, 50 μl of the supernatant was discarded and then 50 μl of Luciferase Constant-Light Reagent (Roche Molecular Biochemicals) was added to lyse the cells and initiate the luciferase reaction. Luminescence, as a measure of luciferase activity, was detected in a Packard TopCount. Transcriptional activation in the presence of a test substance was expressed as fold-change in luminescence compared to that of cells incubated in the absence of the substance. EC50 values were calculated using the XLfit program (ID Business Solutions Ltd. UK).

IC50 [1] | EC50 [2] | SMILES
118 nM | 254 nM | Cc1cc(Cl)ccc1O[C@H](C)c1nc2ccc(F)cc2n1[C@H](C(=O)NC1CCCCC1)C1CCCCC1 [Example 31, (S)-2-{2-[(R)-1-(4-Chloro-2-methyl-phenoxy)-ethyl]-6-fluoro-benzoimidazol-1-yl}-2,N-dicyclohexyl-acetamide]
38 nM | 95 nM | Cc1cccc(OCc2nc3cc(F)ccc3n2C(C(=O)NC2CCCCC2)C2CCCCC2)c1C (stereo not drawn) [Example 49, 2,N-Dicyclohexyl-2-[2-(2,3-dimethyl-phenoxymethyl)-5-fluoro-benzoimidazol-1-yl]-acetamide]
105 nM | 982 nM | O=C(NC1CCCCC1)C(C1CCCCC1)n1c(COc2ccccn2)nc2cc(F)ccc21 (stereo not drawn) [Example 56, 2,N-Dicyclohexyl-2-[5-fluoro-2-(pyridin-2-yloxymethyl)-benzoimidazol-1-yl]-acetamide]
